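Grown in 96-well plates, cells were treated for 48 hours with each compound at five concentrations. Insufficient inhibition: endpoint recorded as highest concentration tested. TGI marks complete inhibition of growth.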
Legend:
Assay in all cases: NCI tumour cell line growth inhibition, 48 h
[1] = tested on: A549 NSCLC
[2] = tested on: CCRF-CEM leukemia
[3] = tested on: HS 578T breast
[4] = tested on: MDA-MB-435
[5] = tested on: NCI-H522 lung
[6] = tested on: SF-268 CNS
[7] = tested on: SF-295 CNS
[8] = tested on: SNB-75 CNS
[9] = tested on: SR leukemia
[10] = tested on: TK-10 renal
[11] = tested on: DU-145 prostate

| Structure (SMILES) | TGI [1] | TGI [2] | TGI [3] | TGI [4] | TGI [5] | TGI [6] | TGI [7] | TGI [8] | TGI [9] | TGI [10] | TGI [11] |
| --- | --- | --- | --- | --- | --- | --- | --- | --- | --- | --- | --- |
| CNC(=S)NNC1=NCCCCN1 | > 100 µM | > 100 µM | > 100 µM | > 100 µM | > 100 µM | > 100 µM | > 100 µM | > 100 µM | > 100 µM | > 100 µM | – |
| N=C(N)C1CN(CC=O)C(=O)NC1=O (stereo not given) | > 100 µM | > 100 µM | – | > 100 µM | – | > 100 µM | > 100 µM | > 100 µM | > 100 µM | > 100 µM | > 100 µM |
| CCOC(=O)/C=C1\Nc2ccccc2-n2nnnc21 | > 100 µM | > 100 µM | – | – | – | > 100 µM | > 100 µM | > 100 µM | > 100 µM | > 100 µM | – |
| CC(CCC(=O)O)[C@H]1CCC2[C@H]3C(CC(=O)[C@@]21C)[C@@]1(C)CCC(O)C[C@H]1C[C@@H]3O (stereo not given in full) | > 100 µM | > 100 µM | – | > 100 µM | > 100 µM | > 100 µM | – | > 100 µM | > 100 µM | – | > 100 µM |
| C=C(Cl)C(Br)(CBr)CCC(Br)C(C)(C)Br (stereo not given) | > 10 µM | > 10 µM | – | > 10 µM | > 10 µM | 6.25 µM | > 10 µM | > 10 µM | > 1 µM | > 10 µM | > 10 µM |
| O=C(CCCN1CC=C(n2c(=O)[nH]c3ccccc32)CC1)c1cccs1 | > 100 µM | > 100 µM | – | > 100 µM | > 100 µM | > 100 µM | > 100 µM | > 100 µM | > 100 µM | > 100 µM | > 100 µM |
| CN(CCO)c1nc2c(c(=O)[nH]1)CNCC2 | > 100 µM | > 100 µM | – | – | > 100 µM | > 100 µM | > 100 µM | > 100 µM | > 100 µM | > 100 µM | – |
| COc1cc(-c2c(C)c(C)nc(OC)c2C#N)cc(OC)c1OC | > 100 µM | > 100 µM | – | – | – | > 100 µM | > 100 µM | > 100 µM | – | > 100 µM | – |
| N#CC(C#N)=C1CCCCc2ccc([N+](=O)[O-])cc21 | > 100 µM | > 100 µM | > 100 µM | > 100 µM | 39.9 µM | > 100 µM | > 100 µM | > 100 µM | – | > 100 µM | > 100 µM |
| COc1cc(CCCC(O)COc2cccc3c2C2(O)CCCCCC32)cc(OC)c1 (stereo not given) | 30.8 µM | > 100 µM | – | – | 42.1 µM | 32.9 µM | 30.5 µM | 30.2 µM | – | 28.1 µM | – |
| O=S1(=O)OCCCOS(=O)(=O)C1Br | > 100 µM | – | – | > 100 µM | > 100 µM | > 100 µM | > 100 µM | > 100 µM | > 100 µM | > 100 µM | > 100 µM |
| CCCCc1ccc(N2C(=O)c3cccnc3S2(=O)=O)cc1 | > 100 µM | > 100 µM | – | > 100 µM | > 100 µM | > 100 µM | > 100 µM | > 100 µM | > 100 µM | – | > 100 µM |
| O=C(Nc1ccccc1)C(=O)C(C(=O)c1ccccc1)C(c1ccccc1)c1ccccc1 (stereo not given) | > 10 µM | > 10 µM | – | > 10 µM | – | > 10 µM | > 10 µM | > 10 µM | > 10 µM | > 10 µM | > 10 µM |
| COC(=O)/C=C(\S/C(=C(/c1ccc(OC)cc1)n1cc(C(=O)OC)c(C(=O)OC)n1)c1ccc(OC)cc1)C(=O)OC | > 100 µM | 15.4 µM | > 100 µM | 34.2 µM | – | 78.8 µM | > 100 µM | > 100 µM | – | 19 µM | 40.3 µM |
| Nc1ccc(C(=O)NN2C(=O)C(Cl)C2c2ccccc2O)cc1 (stereo not given) | > 100 µM | > 100 µM | – | – | > 100 µM | > 100 µM | > 100 µM | > 100 µM | – | > 100 µM | – |
| CCOC(=O)C1C(c2ccc([N+](=O)[O-])cc2)NC(c2ccc([N+](=O)[O-])cc2)C(C(=O)OC)S1(=O)=O (stereo not given) | > 100 µM | > 100 µM | – | – | > 100 µM | > 100 µM | > 100 µM | > 100 µM | > 100 µM | > 100 µM | – |
| COc1ccc(-c2cc(-c3ccco3)c(C#N)c(=S)n2C2OC(CO)C(O)C(O)C2O)cc1 (stereo not given) | > 100 µM | > 100 µM | > 100 µM | > 100 µM | > 100 µM | > 100 µM | > 100 µM | > 100 µM | – | > 100 µM | – |
